Values quoted from earlier work in PMC6253886, “Prodrugs of Thyrotropin-Releasing Hormone and Related Peptides as Central Nervous System Agents” (Molecules, 2009).
Read-outs that look alike come from different tables or passages of the source. Marks after values point to notes of the source that are not given here. Each block holds one substance with its values, some of them ahead of it. [ ]: non-standard residue; d: D form. The star is where a group is joined. O(cholesteryl) = CC(C)CCC[C@@H](C)[C@H]1CC[C@H]2[C@@H]3CC=C4C[C@@H](O*)CC[C@]4(C)[C@H]3CC[C@]12C; pGlu = O=C1CC[C@@H](C(=O)O)N1; Dht = not defined here

Key:
[1] = system: triiodothyronine (T3) levels; conditions: review statement
From the text: (§1) Many pharmacological activities of this peptide are similar to those of TRH [54]; however, the beneficial effects after treatment with [Glu^2]TRH are reportedly more robust or prolonged. These advantages are probably due to the increased resistance of this peptide to enzymes principally responsible for the rapid degradation of TRH in vivo [40].

TRH receptors = conditions: review statement
From the text: as §1

mice [2] = conditions: for Sleeping time (min) / Analeptic Effect: % Decrease in Sleeping Time: 10 µmol/kg i.v.; for Sleeping time (min) / % Decrease in Sleeping Time: pentobarbital 60 mg/kg i.p. 10 min later; for Sleeping time (min): saline vehicle 80±2 min; for % Decrease in Sleeping Time: percent of vehicle sleeping time (54.9 ±3.8 min); for Analeptic Effect: % Decrease in Sleeping Time: percent decrease vs saline vehicle counted as 100%
Method: Table 1 Barbiturate-induced sleeping times in mice after the administration of [Leu^2]TRH and its produgs having various spacers (S). Sleeping time decrease is expressed as percent of sleeping time for vehicle administration only (54.9 ±3.8 min). […] Values are expressed as percent decrease compared to those of saline vehicle that was counted as 100%. *Statistically significant difference from saline control (ANOVA followed by Dunnett’s, P < 0.05, n=6–16). Repri | column: Analeptic Effect:% Decrease in Sleeping Time || (+ 5 further places)

[3] = IAMC
From the text: We utilized again the robust ... || (+ 2 further places)

[4] = From the text: A centrally selective natural analogue of TRH is [Leu^2]TRH (pGlu-Leu-Pro-NH2, Figure 1), in which the central His of TRH is replaced with Leu. […] Therefore, we selected this tripeptide for substantiating our brain-targeting prodrug approach. […] The amino- and carbox ...
[5] = remark: listed apart in the source
Method: Studies in rodents and humans have shown that this tripeptide has a very short (6–10 min) half-life in plasma. The rapid degradation in this medium is mainly due to the action of pyroglutamyl aminopeptidases. Additionally, this highly hydrophilic molecule (logP = –2.46) also lacks its own active BBB transport system; thus, high doses of the peptide unavoidably manifesting a profound and undesired hormonal (endocrine) effect would be required for CNS application. Therefore, dissociation of endocrine and CNS actions of TRH is a crucial issue in designing TRH analogues a ... || A centrally selective natural analogue of TRH is [Leu^2]TRH (pGlu-Leu-Pro-NH2, Figure 1), in which the central His of TRH is replaced with Leu. […] Therefore, we selected this tripeptide for substantiating our brain-targeting prodrug approach. […] The amino- and carbox ...

[6] = rodents and humans
Method: Studies in rodents and humans have shown that this tripeptide has a very short (6–10 min) half-life in plasma. The rapid degradation in this medium is mainly due to the action of pyroglutamyl aminopeptidases. Additionally, this highly hydrophilic molecule (logP = –2.46) also lacks its own active BBB transport system; thus, high doses of the peptide unavoidably manifesting a profound and undesired hormonal (endocrine) effect would be required for CNS application. Therefore, dissociation of endocrine and CNS actions of TRH is a crucial issue in designing TRH analogues a ...

Remark: listed apart in the source
[7] = mouse plasma
From the text: (§2) Replacement of [His^2] practically aboli ...

[8] = system: receptor labeled by [3H][3-Me-His2]TRH; conditions: [3H][3-Me-His2]TRH-labeled receptor, rat brain pellets
From the text: as §2

[9] = target: TRH receptor (Rattus norvegicus) (UniProt Q01717); assay: radioligand competition
TRH receptor (Rattus norvegicus), sequence (Q01717 whole entry): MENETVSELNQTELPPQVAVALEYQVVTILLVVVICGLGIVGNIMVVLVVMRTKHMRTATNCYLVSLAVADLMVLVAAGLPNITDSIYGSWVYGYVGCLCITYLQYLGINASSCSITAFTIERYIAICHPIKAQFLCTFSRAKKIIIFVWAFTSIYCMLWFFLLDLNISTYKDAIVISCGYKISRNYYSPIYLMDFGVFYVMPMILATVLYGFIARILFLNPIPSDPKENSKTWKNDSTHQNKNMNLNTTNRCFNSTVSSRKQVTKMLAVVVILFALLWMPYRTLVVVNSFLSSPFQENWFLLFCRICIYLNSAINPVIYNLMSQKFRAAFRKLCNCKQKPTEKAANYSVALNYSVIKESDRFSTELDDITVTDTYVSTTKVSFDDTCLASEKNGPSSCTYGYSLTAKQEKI

mice [10] = conditions: 3 µmol/kg i.v., percent decrease vs saline vehicle counted as 100%, n=6–16
From the text: Table 4 Comparison of analeptic (equimolar dose of 10 µmol/kg body weight, i.v.) and antidepressant (equimolar dose of 3 of µmol/kg body weight, i.v) effects of test compounds in mice. Values are expressed as percent decrease compared to those of saline vehicle that was counted as 100%. *Statistically significant difference from saline control (ANOVA followed by Dunnett’s, P < 0.05, n=6–16). Repri | column: Porsolt Swim Test:% Decrease in Immobility

[11] = k’IAM = (tR-t0)/t0, t0 = retention time of [Glu^2]TRH as dead-volume marker

TRH, sequence (P01150 whole entry, looked up): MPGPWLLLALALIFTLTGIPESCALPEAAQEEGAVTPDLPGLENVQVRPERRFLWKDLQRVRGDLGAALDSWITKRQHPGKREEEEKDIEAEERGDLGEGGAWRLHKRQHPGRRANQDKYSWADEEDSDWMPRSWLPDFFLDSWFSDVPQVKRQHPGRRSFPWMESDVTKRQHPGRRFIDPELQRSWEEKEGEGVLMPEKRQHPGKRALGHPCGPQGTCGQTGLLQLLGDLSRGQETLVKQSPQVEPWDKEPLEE

Substance: [pGlu]-Glu-Pro-NH2 [[Glu^2]TRH, TRH-like endogenous tripeptide, reference compound]
effect on triiodothyronine (T3) levels, in words [1]: does not elevate triiodothyronine (T3) levels | binding to TRH receptors, in words (TRH receptors): practically does not bind to TRH receptors | Sleeping time (min) (mice [2]): 65±3* min | k’IAM [3, 11]: 0

Substance: Prodrug, S= Ala-Ala: [Leu^2]TRH brain-targeting prodrug: Dht attached through spacer Ala-Ala to Gln-Leu-Pro-Gly, carboxy-terminus esterified with cholesterol (Dht-AAQLPG-{O(cholesteryl)}; reading uncertain)
% Decrease in Sleeping Time (mice [2]; 15 µmol/kg i.v.): 32 ± 4* %

Substance: [pGlu]-Leu-Pro-NH2 [[Leu^2]TRH, reference compound]
increase in typical TRH-associated analeptic effect compared to TRH [4]: approximately 2.5 fold | logP [5]: –1.67 | % Decrease in Sleeping Time (mice [2]; 15 µmol/kg i.v.): 17 ± 7%

Substance: Prodrug, S= Pro-Pro: [Leu^2]TRH brain-targeting prodrug: Dht attached through spacer Pro-Pro to Gln-Leu-Pro-Gly, carboxy-terminus esterified with cholesterol (Dht-PPQLPG-{O(cholesteryl)}; reading uncertain)
% Decrease in Sleeping Time (mice [2]; 15 µmol/kg i.v.): 55 ± 7** %

Substance: Prodrug, S= Pro-Ala: [Leu^2]TRH brain-targeting prodrug: Dht attached through spacer Pro-Ala to Gln-Leu-Pro-Gly, carboxy-terminus esterified with cholesterol (Dht-PAQLPG-{O(cholesteryl)}; reading uncertain)
% Decrease in Sleeping Time (mice [2]; 15 µmol/kg i.v.): 56 ± 4** %

Substance: Prodrug, S= Pro: [Leu^2]TRH brain-targeting prodrug: Dht attached through spacer Pro to Gln-Leu-Pro-Gly, carboxy-terminus esterified with cholesterol (Dht-PQLPG-{O(cholesteryl)}; reading uncertain)
% Decrease in Sleeping Time (mice [2]; 15 µmol/kg i.v.): 47 ± 6** %

Substance: pGlu-His-Pro-NH2 [TRH, thyrotropin-releasing hormone, native tripeptide]
half-life in plasma [6]: 6 to 10 min | logP ([5]; logarithm of the n-octanol/water partition coefficient, review, no reference given for the value): –2.46 | half-life (mouse brain homogenate (20%, w/v)): 16 min | duration of the analeptic action, in words (mice [2]; 15 µmol/kg i.v., pentobarbital 60 mg/kg i.p. given 60 min post drug vs 10 min, Figure 6): loss of over half of CNS-activity | k’IAM ([3]; TRH, pyridinium analogues and their prodrugs): 0.51 | half-life [7]: 11 min | binding affinity [8]: 42 nM

Ki [9]: 42 nM
Substance: TRH (from UniProt P01150)

Substance: pGlu-Glu(OHex)-Pro-NH2 [R=Hex, n-hexyl ester prodrug of [Glu^2]TRH on the γ-COOH of Glu]
Porsolt Swim Test: % Decrease in Immobility (mice [10]): 44±2* % | t1/2 (mouse): ~22 min | Sleeping time (min) (mice [2]): 50±2** min | Analeptic Effect: % Decrease in Sleeping Time (mice [2]; n=6–16): 37±3* % | ED50 (analeptic effect, dose-response) (mice [2]; i.v.): around 2 µmol/kg body weight | k’IAM [3, 11]: 16.0

improvement of affinity to membrane lipids compared to the ionic analogue [3]: three- to five-fold | k’IAM ([3]; [Trig^1] analogue prodrugs): 0.4
Substance: Dht-Glu(OH)-Pro-NH2 [neutral prodrug without the ester function on the side-chain of the central residue]

t1/2 of hydrolysis of the ester (mouse): 27 min | k’IAM ([3]; [Trig^1] analogue prodrugs): 28.6
Substance: Dht-Glu(OHex)-Pro-NH2 [hexyl ester prodrug of Trig-Glu(OH)-Pro-NH2]
Porsolt Swim Test: % Decrease in Immobility (mice [10]): 43±3* % | Analeptic Effect: % Decrease in Sleeping Time (mice [2]; n=6–16): 18 ± 2% | Analeptic Effect: % Decrease in Sleeping Time (mice [2]; n=6–16, listed as Dht-Glu(OHex)–Pro-NH2): 18±2* %

Substance: Prodrug, S= Ala: [Leu^2]TRH brain-targeting prodrug: Dht attached through spacer Ala to Gln-Leu-Pro-Gly, carboxy-terminus esterified with cholesterol (Dht-AQLPG-{O(cholesteryl)}; reading uncertain)
% Decrease in Sleeping Time (mice [2]; 15 µmol/kg i.v.): 30 ± 3* %

Substance: Trig-Glu(OHex)-Pro-NH2 [hexyl ester of the designed [Trig^1] analogue of [Glu^2]TRH]
Porsolt Swim Test: % Decrease in Immobility (mice [10]): 2±1% | Analeptic Effect: % Decrease in Sleeping Time (mice [2]; n=6–16): 1±3% | pharmacological (analeptic) response, in words (mice [2]; i.v., ionic compound without reduction of Trig to Dht): no pharmacological response was observed
